Data taken from the SangsterLogP compilation.

logP	Compound
2.23	O=C(Nc1ccccc1)[C@H]1C[C@@H](C(F)F)C1
2.42	O=C(Nc1ccccc1)C1C(F)(F)C12CC2 (centres undefined)
1.51	O=C(NC1CC1(F)F)c1ccccc1 (centres undefined)
2.21	O=C(c1ccccc1)N1CCCC(C(F)(F)F)C1 (centres undefined)
2.88	O=C(Nc1ccccc1)[C@@H]1C[C@@H]2[C@H](C1)C2(F)F
2.35	O=C(Nc1ccccc1)[C@H]1C[C@H]1C(F)F
3.27	O=C(Nc1ccccc1)C1CC2(CCC2)C1
0.2	O=C(c1ccccc1)N1CC2CS(=O)(=O)CC(C1)C2(F)F
2.02	O=C(NC1CCC(F)(F)C1)c1ccccc1 (centres undefined)
1.95	O=C(NC1CCC1)c1ccccc1
1.57	O=C(N[C@@H]1CC[C@@H]1F)c1ccccc1
2.03	O=C(Nc1ccccc1)C1CCC1(F)F (centres undefined)
1.26	O=C(c1ccccc1)N1CC[C@@H](F)[C@H](F)C1
1.54	O=C(Nc1ccccc1)C12CC(CO1)C2
1.47	O=C(c1ccccc1)N1CC2CC1C2
2.93	O=C(Nc1ccccc1)C1CC2(C1)CC(F)(F)C2
1.15	O=C(c1ccccc1)N1CC[C@@H](F)[C@@H](F)C1
1.01	O=C(c1ccccc1)N1C[C@@H](F)[C@@H](F)C1
2.3	O=C(N[C@@H]1C[C@@H]2C[C@@H]2C1)c1ccccc1
-0.34	O=C(c1ccccc1)N1CC2CC(C1)CS(=O)(=O)C2
2.51	O=C(c1ccccc1)N1CC2CCC1(C(F)(F)F)CC2
2.31	O=C(NC1CCCC(F)(F)C1)c1ccccc1 (centres undefined)
1.71	O=C(N[C@H]1C[C@H](F)C1)c1ccccc1
2.56	O=C(NC1CCCCCC1(F)F)c1ccccc1 (centres undefined)
